Laboratory results published in paper PMC11898701, “Evaluating Therapeutic Efficacy of the Vascular Disrupting Agent OXi8007 Against Kidney Cancer in Mice” (Cancers, 2025).

Key:
Ewing sarcoma = system: Ewing sarcoma; design: method as in PMID 19136249; conditions: 200 mg/kg twice weekly; cited from earlier work
[1] = system: orthotopic Renca-luc tumors; assay: Acute response by dynamic bioluminescence imaging (BLI) and histology; assay type: in vivo, mouse
Experimental: Anesthesia was induced with 1–3% isoflurane, and the mice were placed on the warmed imaging stage of an IVIS Spectrum® small animal imaging system (Xenogen/PerkinElmer Inc., Waltham, MA, USA) with continuous exposure to 1 to 2% isoflurane, as described previously. On successive occasions, mice were administered 75 µL of D-luciferin (sodium salt; Gold Biotechnology, St. Louis, MO, USA) SC in the fore back neck region as a 40 mg/mL solution in 0.9% saline. The BLI signal was quantified as the total flux using Living Image Software 4.3.7. Fresh luciferin was administered 4 and 24 h after drug administration to reveal acute changes in tumor perfusion.
Acute effects of OXi8007 were examined on Renca-luc tumor-bearing mice using BLI (n = 8) and MSOT (n = 6) by comparing images at the baseline [pre (0 h)] and following OXi8007 administration (IP) at 4 h and 24 h. Dynamic BLI images were acquired every minute over the course of 15–20 min immediately following luciferin injection. For MSOT, the same mice underwent a gas breathing challenge for 5 min in air (21% O2), 7 min in O2 (100% O2), followed by 3 min in air at 0 h, 4 h, and 24 h post-treatment.

[2] = system: orthotopic XP258 human tumor xenografts; assay: Long-term therapy of XP258 human tumor xenografts; assay type: in vivo, mouse
Source text: The animal procedures were approved by the UT Southwestern Medical Center Institutional Animal Care and Use Committee under APNs 2017-102152 and 2018-102344-CORE. Renca-luc orthotopic tumors were induced by inserting tumor tissue (~1 mm^3) harvested from a donor mouse into the right kidney of syngeneic BALB/c mice (age 8 weeks, male and female; Envigo, Indianapolis, IN, USA), as described previously. Orthotopic XP258 tumors (derived from a patient with pT3aN0M1 clear cell RCC) were obtained from the UT Southwestern Kidney Cancer SPORE [53, 54] and maintained by serial passage. Tumors were induced by inserting tumor tissues from a donor tumor into the left kidney capsule of female NOD/SCID mice (Envigo).
OXi8007, synthesized by the Pinney Laboratory using published procedures, was dissolved in saline, verified to be in the pH range 7.3 to 7.5, and dosed at 250 mg/kg (IP). Cabozantinib (in PEG400 and ultrapure H2O (Milli-Q)) was administered at 3 mg/kg by oral gavage. Anti-PD-1 (10 mg/kg, Bio X Cell, Lebanon, NH, USA) and anti-CTLA-4 (5 mg/kg, Bio X Cell, Lebanon, NH) solutions were administered (IP) on the day before OXi8007 […].
We evaluated the longitudinal effects of OXi8007 alone and in combination with drugs currently favored for treating kidney cancer. For Renca-luc tumor-bearing mice, BLI was performed at least once a week to estimate tumor size, and mice were weighed weekly to adjust the dose as needed. Two treatment cohorts examined syngeneic orthotopic Renca-luc tumors in male BALB/c mice. Treatment started when the tumors reached about 1 × 10^6 photons/s peak total flux on BLI. The first cohort examined OXi8007 with cabozantinib. Mice were divided into four groups. Mice were assigned to groups as soon as there were sufficient to add the same numbers of animals to each group. The specific assignment was defined using the random number function in Excel. As such, each group included both faster- and slower-growing tumors. […]

[3] = system: orthotopic XP258 human tumor xenografts; assay: Acute response of XP258 tumors by MSOT; assay type: in vivo, mouse; conditions: XP258, four hours post-treatment, 250 mg/kg IP
Experimental: For the multispectral optoacoustic tomography (MSOT), an iThera InVision 256-TF device with seven wavelengths (700, 730, 760, 780, 800, 820, and 875 nm) was used. Mice were shaved and depilated around the tumor region. The anesthetized mouse (1–2% isoflurane) was placed in the imaging chamber (34 °C) for 10 min to reach thermal equilibrium before imaging a single slice showing the largest cross-section of the tumor. An oxygen gas breathing challenge was performed to assess the dynamic changes in blood oxygenation. Images were generated using ViewMSOT version 4.2 with a back projection-based reconstruction algorithm followed by built-in fluence correction. Oxy- and deoxyhemoglobin were resolved using a linear regression approach.
Oxygen saturation (sO2) maps were analyzed using MATLAB 2022b (MathWorks Inc., Natick, MA, USA), and the images were visualized with Fiji. The percentage of hemoglobin saturation (sO2) was calculated as follows:[…]
Blank pixels represent areas lacking a detectable hemoglobin signal. The average sO2^MSOT was calculated pixelwise in each ROI for the air and oxygen breathing periods as sO2^MSOT (Air) and sO2^MSOT (O2), and the response to the oxygen gas challenge was as follows:∆sO2 = sO2 (O2) − sO2 (Air)(2)

## COc1ccc2c(C(=O)c3cc(OC)c(OC)c(OC)c3)c(-c3ccc(OC)c(OP(=O)(O)O)c3)[nH]c2c1 [OXi8007]
Ewing sarcoma
  Tumor growth delay: no tumor growth delay
[1]; 4 h after OXi8007 250 mg/kg IP, 8 mice
  BLI signal relative to baseline: < 2 % baseline
[1]; Renca-luc, within 4 h post-treatment
  Histology of tumor: extensive intratumoral hemorrhage
[1]; within 4 h, orthotopic kidney tumors
  Vascular shutdown (BLI): > 98%
[2]; XP258, long-term therapy, monotherapy or combined
  Tumor weights at sacrifice: much smaller tumors
[2]; XP258 in NOD/SCID mice, OXi8007 250 mg/kg IP twice weekly, cabozantinib 3 mg/kg oral daily
  Survival versus controls: significantly enhanced survival
[3]
  Tumor vascular oxygenation (MSOT): less well oxygenated and less responsive to the oxygen gas breathing challenge
